For assay [1], the system named is P(40), P(80), S(80) cell fractions of Methylosinus sp. (CRL-15, NRRL B-11,202). In words: Oxidation of n-alkanes and n-alkenes by cell fractions. It counts as biochemical. The note with it: for Uninhibited rate of oxidation: no inhibitor; for NADH Oxidized / O2 Consumed / Product Formed: substrate 5.0 μmoles; for Rate of Product Formation (substrate to 1,2-epoxide or alcohol) / 100% activity, product formed (storage study) / 100% activity, product formed (pH study) / 100% activity, product formed (temperature study): P(40) particulate fraction; for 100% activity, product formed (storage study): before storage at 0°-4° C.; for 100% activity, product formed (pH study): optimum pH 7.0; for 100% activity, product formed (temperature study): optimum temperature 35° C. As to the method: (§1) Cells were washed twice with 25 mM potassium phosphate buffer, pH 7.0 containing 5 mM MgCl2. Cells were suspended in the same buffer. The cell suspensions at 4° C. were disintegrated by a single passage through a French Pressure cell (15,000 lb./in.^2) and centrifuged at 5000×g. for 15 min. to remove unbroken bacteria. The supernatant solution (crude extract) was then centrifuged at 40,000×g. for 30 min., yielding particulate P(40) and soluble S(40) fractions. The S(40) fraction was subsequently centrifuged at 80,000×g. for 60 min., yielding particulate P(80) and soluble S(80) fractions. The particulate fractions [P(40) and P(80)] were suspended in 25 mM potassium phosphate buffer, pH 7.0, containing 5 mM MgCl2 and homogenized at 4° C.
[…] The reaction mixtures contained in 1.0 ml: 150 mM potassium phosphate buffer, pH 7.0 containing 5 mM MgCl2, 0.6 ml; […] NADH, and cellular fraction.
(§2) Reaction mixtures were contained in 10 ml vials at 4° C. Vials were sealed with rubber caps. The gaseous phase in the vials was removed using vacuum and then was replaced with a gas mixture of methane or propylene and oxygen at a 1:1, v/v ratio. Oxidation of other gaseous n-alkanes and n-alkenes was examined as described above. For liquid substrates, 10 μl of substrate was used directly.
(§3) The products of epoxidation of n-alkenes and hydroxylation of n-alkanes were assayed by flame ionization gas chromatography using a stainless steel column (12'×1/8") packed with 10% Carbowax 20 M on 80/100 Chromosorb W and Porapak Q column. The column temperature was maintained isothermally at 120° C. The carrier gas flow rate was 30 ml/min. of helium. The various products were identified by retention time comparisons and co-chromatography with authentic standards.
(§4) Specific activities were expressed as μ moles of products formed per hour per mg. protein. Concentrations of protein in various fractions were determined by the method of Lowry et al., J. Biol. Chem. 193: 265-275 (1951).

Assay [2] relates to Methylosinus trichosporium OB3b (NRRL B-11,196). Kind of assay: Methane hydroxylation and alkene epoxidation by washed cell suspensions. Format: cell-based. The note with it: for Propylene Oxide Formed: 3.6 mg cells; for Ability to hydroxylate methane or epoxidize C2 -C4 alkenes: methanol-grown washed cells. As to the method: The pH of the nutrient medium was adjusted to 7.0 by the addition of acid or base and 50 ml aliquots of the nutrient medium was charged into a plurality of 300 ml shake flasks. […] The isolates had been maintained on agar plates under an atmosphere of methane and air having a 1:1 v/v gas ratio which had been transferred every two weeks. The gaseous phase of the inoculated flasks was then replaced with a gas mixture comprised of methane and air having a ratio of 1:1 on a v/v basis. The inoculated flasks were sealed air tight and were incubated on a rotary shaker of orbital radius 2.5 cm at 250 rpm and at 30° C. for two days until the turbidity in the medium had developed.
The cells were harvested by centrifugation at 10,000 ×g at 4° C. for 30 minutes. The cell pellet was washed twice with a 0.15 M phosphate buffer at a pH of 7.0 (containing 0.002 M MgCl2). The washed cells were then suspended in a 0.15 M phosphate buffer at pH 7.0.
[…] The gaseous phase of the vials was removed with vacuum and then was replaced with a gas mixture of alkene and oxygen at a 1:1 v/v ratio. It was then incubated at 30° C. on a rotary shaker at 300 rpm. Samples of product (3 μl) were withdrawn periodically with a microsyringe and the products were analyzed by gas chromatography (ionization flame detector column).

Assay [3] concerns P(40), P(80), S(80) cell fractions of Methylobacterium sp. (CRL-26, NRRL B-11,222). Kind of assay: Methane and propylene oxidation by cell fractions. Format: biochemical. The settings on record: 30° C. On the procedure:
as §1
The oxidation of methane and propylene by particulate [(P)40 and (P)80] fractions and soluble [S(80)] fraction was measured at 30° C. by estimating the production of methanol and propylene oxide, respectively. The reaction mixtures contained in 1.0 ml: 150 mM potassium phosphate buffer, pH 7.0 containing 5 mM MgCl2, 0.6 ml; […] NADH, and cellular fraction.
as §2, §3, §4

[4] abbreviates: Propylene + Methane + O2 (25:25:50 v/v), 15 minutes.
The mark [5] stands for this setting: methane-grown washed cells, 30° C.

Turning to `C` [Methane], in assay [1] (P(40) fraction, 30° C.), the “Methane-Oxidizing Activity, P(40)” value is given as 4.8 μmoles of product formed per h. In assay [1] (P(40) fraction), the “Uninhibited rate of oxidation” value is reported as 4.5 μmoles per hr. per mg. of prot, the “NADH Oxidized” value is 4.8 µmol, the “O2 Consumed” value was 4.6 µmol and the “Product Formed” value turned out to be 4.2 µmol. In assay [1] (P(40) fraction, substrate Propylene + Methane (1:1, v/v)), the “Propylene Oxide Produced” value is recorded as 1.8 μmoles/hr/mg. protein. For the same compound, the “Propylene Oxide Produced” value in assay [1] (P(40) fraction, substrate methane alone) is 0 μmoles/hr/mg. protein. The “Rate of Product Formation (substrate to 1,2-epoxide or alcohol)” value in assay [1] (30° C.) is 4.8 μmoles/hr/mg of protein. In addition, in assay [1], the “100% activity, product formed (storage study)” value is listed as 4.8 μmoles per hr. per mg. of prot; the “100% activity, product formed (pH study)” value was 4.8 μmoles per hour, per mg protei; the “100% activity, product formed (temperature study)” value is 5.0 μmoles per hour per mg of prot. Also, the “Methane-Oxidizing Activity, P(80)” value in assay [1] (P(80) fraction, 30° C.) is 4.2 μmoles of product formed per h. The “Methane-Oxidizing Activity, S(80)” value in assay [1] (S(80) fraction, 30° C.) is 0 μmoles of product formed per h. Moreover, in assay [2] (setting [4]), the “Propylene Oxide Formed” value turned out to be 0.8 µmol and the “% Inhibition of propylene epoxidation” value is listed as 50%. Moreover, in assay [2] (setting [5]), the “Conversion rate, methane hydroxylation (methane to methanol)” value is recorded as 1.5 μmole/hr/mg protein. The “Ability to hydroxylate methane or epoxidize C2 -C4 alkenes” value in assay [2] is recorded as “did not possess the ability”. In addition, the “Methane-Oxidizing Activity, P(40)” value in assay [3] (P(40) fraction) was 2.7 μmoles of product formed per h. Moreover, in assay [3] (P(80) fraction), the “Methane-Oxidizing Activity, P(80)” value is listed as 2.8 μmoles of product formed per h. The “Methane-Oxidizing Activity, S(80)” value in assay [3] (S(80) fraction) is reported as 0 μmoles of product formed per h.
Regarding `C=CC` [Propylene], the “Propylene-Oxidizing Activity, P(40)” value in assay [1] (P(40) fraction, 30° C.) was 3.8 μmoles of product formed per h. In assay [1] (P(40) fraction), the “Uninhibited rate of oxidation” value is recorded as 4.1 μmoles per hr. per mg. of prot, the “NADH Oxidized” value is 5.0 µmol, the “O2 Consumed” value is 4.8 µmol and the “Product Formed” value worked out at 4.5 µmol. For the same compound, in assay [1] (P(40) fraction, substrate propylene alone), the “Propylene Oxide Produced” value turned out to be 4.3 μmoles/hr/mg. protein. For the same compound, the “Rate of Product Formation (substrate to 1,2-epoxide or alcohol)” value in assay [1] (30° C.) is 4.1 μmoles/hr/mg of protein. Also, in assay [1], the “100% activity, product formed (storage study)” value is recorded as 4.1 μmoles per hr. per mg. of prot; the “100% activity, product formed (pH study)” value is reported as 4.1 μmoles per hour, per mg protei; the “100% activity, product formed (temperature study)” value is given as 4.2 μmoles per hour per mg of prot. In addition, in assay [1] (P(80) fraction, 30° C.), the “Propylene-Oxidizing Activity, P(80)” value was 3.7 μmoles of product formed per h. Also, in assay [1] (S(80) fraction, 30° C.), the “Propylene-Oxidizing Activity, S(80)” value is given as 0 μmoles of product formed per h. The “Propylene Oxide Formed” value in assay [2] (Propylene + Helium + O2 (25:25:50 v/v), 15 minutes) amounted to 1.6 µmol. In addition, in assay [2] (setting [5]), the “Conversion rate, propylene to propylene oxide” value is 3.6 μmole/hr/mg protein. Besides, in assay [2], the “Ability to hydroxylate methane or epoxidize C2 -C4 alkenes” value was “did not possess the ability”. For the same compound, the “Propylene-Oxidizing Activity, P(40)” value in assay [3] (P(40) fraction) is given as 1.2 μmoles of product formed per h. Moreover, the “Propylene-Oxidizing Activity, P(80)” value in assay [3] (P(80) fraction) is given as 1.1 μmoles of product formed per h. Moreover, the “Propylene-Oxidizing Activity, S(80)” value in assay [3] (S(80) fraction) is 0 μmoles of product formed per h.
